Reference: US12479827B2, “Heteroaromatic carboxamide derivatives as plasma kallikrein inhibitors” (Boehringer Ingelheim International GmbH, priority 2020, dated 2025)
Peptide text beside a SMILES is read from it. * marks the point of attachment. AMC = Cc1cc(=O)oc2cc(N*)ccc12

Biological target: T1, Human PKK (Homo sapiens, UniProt P03952)
T1 construct: purchased Enzyme Research Laboratories
Assay: Inhibition of PKK (Ki)
Type: biochemical
Conditions: substrate KM, enzyme PKK
Description: The ability of compounds of formula (I) to inhibit plasma kallikrein (PKK), Factor XIIa (FXIIa), Factor XIa (FXIa), Factor Xa (FXa), Factor IIa (alpha-thrombin; FIIa), plasmin, trypsin, tissue kallikrein 1 (TK1), Factor VIIa (FVIIa), or FVIIa complexed with Tissue Factor, phospholipids and CaCl2 (FVIIa/TF/PL/CaCl2) is determined using the following biochemical assays in assay buffer (100 mM Tris, 150 mM NaCL, adjusted to a pH of 7.8 with HCl, and containing 0.1% (w/v) BSA and 0.05% (v/v) Tween20) in the presence of 1% (v/v) DMSO:
Human PKK (1.78 nM or 0.025 U/mL; Enzyme Research Laboratories) is incubated at 24° C. with 0.25 mM fluorogenic substrate H-Pro-Phe-Arg-AMC (11295 from Bachem) and various concentrations of the test compound in assay buffer. Measurements are performed in a kinetic interval every 2nd minute for 16 min using a Spectramax M5 (Molecular Devices) with the following settings of the wavelength excitation of 350 nm and wavelength emission of 450 nm.
The pIC50 values are then fitted using a four-parametric fitting procedure using GraphPad Prism (version 6; GraphPad Software, Inc.). Respective Ki values are obtained by correction of the IC50 values for the respective KM value of the used substrate (see Table A for the obtained KM values of the used substrates) using the following formula:
[formula] Where the IC50 is in molar and the KM value in mM.

T1 sequence (P03952 20-390 limits assumed): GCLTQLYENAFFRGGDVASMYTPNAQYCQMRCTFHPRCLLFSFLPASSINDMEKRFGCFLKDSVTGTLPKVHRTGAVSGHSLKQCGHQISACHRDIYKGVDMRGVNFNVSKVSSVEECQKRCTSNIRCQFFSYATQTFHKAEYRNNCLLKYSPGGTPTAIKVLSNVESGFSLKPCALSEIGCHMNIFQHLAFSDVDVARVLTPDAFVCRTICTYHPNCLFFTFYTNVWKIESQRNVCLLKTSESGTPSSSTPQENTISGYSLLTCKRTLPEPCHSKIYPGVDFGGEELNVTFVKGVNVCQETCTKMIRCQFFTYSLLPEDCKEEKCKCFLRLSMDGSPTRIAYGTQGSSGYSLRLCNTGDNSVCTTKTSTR
T1 sequence (P03952 391-638 limits assumed): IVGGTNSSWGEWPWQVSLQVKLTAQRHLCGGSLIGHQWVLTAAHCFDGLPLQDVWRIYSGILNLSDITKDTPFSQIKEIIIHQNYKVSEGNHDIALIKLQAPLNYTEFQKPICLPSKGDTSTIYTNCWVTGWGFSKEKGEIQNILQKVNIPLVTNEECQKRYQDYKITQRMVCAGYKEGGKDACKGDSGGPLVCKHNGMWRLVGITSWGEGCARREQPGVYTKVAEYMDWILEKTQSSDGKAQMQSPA

Km: 160 µM
SMILES: Cc1cc(=O)oc2cc(NC(=O)[C@H](CCCNC(=N)N)NC(=O)[C@H](Cc3ccccc3)NC(=O)[C@@H]3CCCN3)ccc12 [Example I1295, H-Pro-Phe-Arg-AMC] (H-Pro-Phe-Arg-{AMC})
